From US12492223B2, “Peptide compositions capable of binding lanthionine synthetase C-like protein (LanCl) and uses thereof” (priority 2021, dated 2025)
Like-named read-outs stand apart in the source and are kept apart here. Positions of bridges follow the written chain, without caps; N, C: chain ends. Residues, ends and D or L forms follow the SMILES beside them. No end group written: not given here.

Assays:
A549 cells = assay: A549 proliferation + stress assay (restoration of viability of Taxol-treated cells, CellTiter-Glo); format: cell-based, human; settings: for Estimated Activity in A549 proliferation + stress assay: 350 μM Taxol, 16 hours, peptide 1-100 μM; for restoration of A549 viability: Taxol-treated A549 cells
Experimental: An assay was developed that involves stressing cells with a dose of the chemotherapeutic agent, Taxol, that causes a 50% inhibition of cell viability when compared to untreated cells. Peptides were then added to the cell cultures at increasing concentrations to assess their ability to restore the viability of the Taxol-treated cells.
Briefly, A549 cells were cultured in opaque-walled multiwell plates with 50000 A549 cells/well in culture medium (DMEM medium ref 11960-044 Thermoscientific, +10% FBS ref 10270-106 Gibco, Thermoscientific, +1% Na pyruvate ref S8636-100 ML, Sigma, +1%, Glutamax ref35050061, Thermoscientific, +1% Penicillin-Streptomycin, ref 11074440001, Sigma) 100 μl per well for 96-well plates. Control wells containing medium without cells were used to obtain a value for background luminescence. Cells were incubated at 37° C. in 5% CO2 overnight.
100 μL of medium+DMSO+peptides or medium+Taxol+peptides (at the different concentrations) were added to each well and incubated for 16 hours at 37° C. 5% CO2.
Cell morphology, viability and confluency were assessed by phase contrast microscopy. The CellTiter-Glo® Luminescent Cell Viability Assay (G7571, Promega—a homogeneous method to determine the number of viable cells in culture based on quantitation of the ATP present) was then used to quantify the number of metabolically active cells, according to the manufacturer's instructions. 100 μl volume of CellTiter-Glo® Reagent was added to the 100 μL volume of cell culture medium present in each well, Contents were mixed for 2 minutes on an orbital shaker to induce cell lysis and after incubating the plates at room temperature for 10 minutes to stabilize luminescent signal luminescence was recorded with an integration time of 0.5 seconds using a CLARIOstar multi well luminometer (BMG Labtech)

HKx31 (H3N2) = format: in vivo, mice; parameters: key to PMN activity score / Viral titre activity score / BAL IL-6 activity score: 0: inactive; 1: less active than the peptide of SEQ ID NO:38; 2: comparable or more active than the peptide of SEQ ID NO:38; settings: for IL-6 levels in the BAL fluid / viral titres: 10 mg/kg single dose
[1] = target: recombinant LanCL1 (rLanCL1) (Homo sapiens, UniProt O43813); assay: biochemical; format: binding
Experimental: Dry pellets of LANCL1 previously photolabelled with photoprobes in the presence of different peptides or PBS/DMSO vehicle were resuspended in 30 μL SDS loading buffer (Bio Rad's XT Sample Buffer containing 2.5% v/v 2-mercaptoethanol) and heated (60° C., 30 min). Proteins were resolved using SDS-PAGE (4-15% Criterion™ TGX Stain-Free™ Protein Gel, Bio Rad) and analyzed by in-gel fluorescence scanning using a ChemiDoc™ MP Imaging System (Bio Rad) with a green LED light as an excitation source and a BP600/20 nm emission filter. After in-gel fluorescence scanning, gels were stained with Coomassie blue to ensure the same amount of protein sample was loaded in each lane and imaged with the ChemiDoc™ MP Imaging System. Photoincorporation of each photoprobe in LANCL1 was quantitatively assessed by measuring the fluorescent intensity of the corresponding gel band using Image lab software (Bio Rad) and normalizing this value against the intensity value of LANCL1 gel band stained with Coomassie blue to control for loading differences.
(SEQ ID NO:22) from recombinant LanCL1 (rLanCL1).

Sequence of recombinant LanCL1 (rLanCL1) (O43813 whole entry, species assumed): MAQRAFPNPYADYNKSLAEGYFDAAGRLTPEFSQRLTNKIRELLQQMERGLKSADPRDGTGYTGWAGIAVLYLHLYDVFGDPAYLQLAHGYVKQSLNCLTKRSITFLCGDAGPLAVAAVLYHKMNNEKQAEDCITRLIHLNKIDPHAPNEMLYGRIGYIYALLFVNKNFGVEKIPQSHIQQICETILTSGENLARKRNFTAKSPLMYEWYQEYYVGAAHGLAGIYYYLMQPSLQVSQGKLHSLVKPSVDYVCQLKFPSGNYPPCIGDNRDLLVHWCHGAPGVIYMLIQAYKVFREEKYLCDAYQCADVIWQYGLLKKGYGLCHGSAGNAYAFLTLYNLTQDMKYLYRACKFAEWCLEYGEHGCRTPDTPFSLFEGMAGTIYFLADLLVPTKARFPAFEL

Row | Compound | Estimated Activity in A549 proliferation + stress assay (A549 cells) | BAL IL-6 activity score (HKx31 (H3N2); mouse, in vivo, 10 mg/kg) | PMN activity score (HKx31 (H3N2); mouse, in vivo, 10 mg/kg) | Viral titre activity score (HKx31 (H3N2); mouse, in vivo, 10 mg/kg) | EC50 [1] | further results
1 | 9 (RSVEGS) [compound 9] | STRONG (clear dose-dependent restoration of cell viability from 1-5 μM upwards) | 2 | 2 | 2 | – | restoration of A549 viability (A549 cells): restored the Taxol-induced loss of cell viability; IL-6 levels in the BAL fluid (HKx31 (H3N2)): as effective; viral titres (HKx31 (H3N2); day 3): effective; reducing the PMN infiltrate in BAL fluid, compared with the peptide of SEQ ID NO:38 (HKx31 (H3N2); single 10 mg/kg dose): as effective
2 | 63 (ALNSS) [compound 63] | MODERATE (moderate dose-dependent restoration of cell viability at >25 μM) | – | – | – | – | Viral titre activity score (HKx31 (H3N2); single 10 mg/kg dose, day 3, relative to SEQ ID NO:38): 0
3 | RALNSS [compound 39] | – | – | – | – | > 200 µM | –
4 | 42 (KALPRS) [compound 42] | STRONG (clear dose-dependent restoration of cell viability from 1-5 μM upwards) | 2 | 2 | 2 | – | restoration of A549 viability (A549 cells): partially restore A549 viability; IL-6 levels in the BAL fluid (HKx31 (H3N2)): as effective; viral titres (HKx31 (H3N2); day 3): effective; reducing the PMN infiltrate in BAL fluid, compared with the peptide of SEQ ID NO:38 (HKx31 (H3N2); single 10 mg/kg dose): as effective
5 | CC(C)[C@@H]1NC(=O)[C@@H]2CCCN2C(=O)[C@H](CCCNC(=N)N)NC(=O)[C@H](CO)NC(=O)[C@H](CCCNC(=N)N)NC(=O)[C@@H](N)CSSC[C@@H](C(=O)N[C@@H](CO)C(=O)O)NC(=O)[C@H](CO)NC(=O)[C@H](CO)NC(=O)[C@H](CCC(=O)O)NC1=O [compound 14] (H-CRSRPVESSCS-OH; disulfide 1-10; N-terminus and C-terminus assumed) | STRONG (clear dose-dependent restoration of cell viability from 1-5 μM upwards) | – | – | – | ~100 µM | –
6 | CC[C@H](C)[C@H](NC(=O)[C@H](CCCNC(=N)N)NC(=O)[C@H](CC(C)C)NC(=O)[C@@H](N)Cc1ccc(O)cc1)C(=O)N[C@H](C(=O)N[C@@H](CCC(N)=O)C(=O)N[C@H]1CSSC[C@@H](C(=O)NCC(=O)N[C@@H](Cc2ccccc2)C(=O)O)NC(=O)[C@H](CO)NC(=O)CNC(=O)[C@H](CCC(=O)O)NC(=O)[C@H](C(C)C)NC(=O)[C@H](CO)NC(=O)[C@H](CCCNC(=N)N)NC1=O)C(C)C [compound 1] (H-YLRIVQCRSVEGSCGF-OH; disulfide 7-14) | – | – | – | – | 50 to 100 µM | –
7 | 60 (RALN) [compound 60] | WEAK (some or variable restoration of cell viability at 50-100 μM) | 2 | 2 | 2 | – | –
8 | QEQLERALNSS [compound 37] | – | – | – | – | 100 to 200 µM | –
9 | CC(C)C[C@@H]1NC(=O)[C@H](C)NC(=O)[C@H](CCCNC(=N)N)NC(=O)[C@@H](N)CSSC[C@@H](C(=O)O)NC(=O)[C@H](CO)NC(=O)[C@H](CO)NC(=O)[C@H](CC(N)=O)NC1=O [compound 40] (H-CRALNSSC-OH; disulfide 1-8) | – | – | – | – | 50 to 100 µM | –
10 | 59 (RALNS) [compound 59] | WEAK-MODERATE | 2 | 2 | 2 | – | –
11 | CC(C)C[C@@H]1NC(=O)[C@H](C)NC(=O)[C@H](CCCNC(=N)N)NC(=O)[C@H](CCC(=O)O)NC(=O)[C@H](CC(C)C)NC(=O)[C@H](CCC(N)=O)NC(=O)[C@H](CCC(=O)O)NC(=O)[C@H](CCC(N)=O)NC(=O)[C@@H](N)CSSC[C@@H](C(=O)O)NC(=O)[C@H](CO)NC(=O)[C@H](CO)NC(=O)[C@H](CC(N)=O)NC1=O [compound 38] (H-CQEQLERALNSSC-OH; disulfide 1-13) | – | – | – | – | 50 to 100 µM | –
12 | CC[C@H](C)[C@@H]1NC(=O)[C@H](CCCNC(=N)N)NC(=O)[C@@H](N)CSSC[C@@H](C(=O)O)NC(=O)[C@H](CC(N)=O)NC(=O)[C@H](CC(N)=O)NC(=O)[C@H](CC(N)=O)NC(=O)[C@H](Cc2c[nH]cn2)NC(=O)[C@H]([C@@H](C)CC)NC1=O [compound 24] (H-CRIIHNNNC-OH; disulfide 1-9) | – | – | – | – | 100 to 200 µM | –
